Literature values, collected in patent US20230360801A1, “METHODS AND SYSTEMS OF IDENTIFYING INDIVIDUALS FOR PERIOPERATIVE NEUROCOGNITIVE DISORDER AND/OR POST-VIRAL COGNITIVE IMPAIRMENT” (Cambridge Cognition Limited, priority 2021, published 2023).

## CC(C)(Oc1ccc(C(=O)c2ccc(Cl)cc2)cc1)C(=O)O [fenofibric acid]
  logP: 3.9
